# Tests used:
# Format in all cases: physicochemical
# [1] = Hygroscopicity: water sorption and desorption by dynamic vapor sorption (DVS); conditions: for hygroscopicity: DVS at 25° C., cycle 40-0-95-0-40% RH; for form change after the DVS test: XRPD after DVS
# Procedure: In some embodiments, the crystalline form described herein is further characterized by is further characterized by a dynamic vapor sorption (DVS) profile. In some embodiments, a DVS is recorded according to the method as described herein with a cycle of 40-0-95-0-40% RH at 25° C.
# Water sorption and desorption behaviors of Form A, Form C, Form D, and Form T were investigated by DVS at 25° C. with a cycle of 40-0-95-0-40% RH. Dm/dt was 0.002. Minimum equilibration time was 60 min. Maximum equilibration time was 360 min. XRPD was measured after DVS test to determine potential form change.
# [2] = Variable humidity and temperature XRPD experiments
# Procedure: Based on DVS and DSC results of Form C, Form C starts to loss water when humidity is below 30% or when temperature is higher than about 44° C. […] In order to determine identity of potential form changes after the dehydration and upon the solid-solid transition, variable humidity and variable temperature XRPD techniques were applied. XRPD patterns of the sample were measured online under 25° C./ambient environment (initial)-120° C./N2 protection-25° C./ambient environment-25° C./80% RH (40 min)-25° C./0% RH (15 h), and 25° C./ambient environment (initial)-250° C./N2 protection-25° C./ambient environment. […] Form L coverts back to Form C after exposure to 25° C./80% RH for 40 min.
# Based on DVS and DSC results of Form D, Form D starts to loss water when humidity is below 10% or when temperature is higher than 46° C. In order to determine identity of the dehydration product, variable humidity and variable temperature XRPD techniques were applied. XRPD patterns of the sample were measured online with a temperature cycle of 25° C./ambient environment (initial)-130° C./N2 protection (10 min)-25° C./N2 protection-25° C./ambient environment (3h) and two water sorption and desorption cycles of 50% RH (initial)-90% RH (3h)-60% RH (2h)-40% RH (2h)-20% RH (3h)-10% RH (3h)-0% RH (6h)-10% RH (3h)-20% RH (3h)-50% RH at 25° C. […] (higher than dehydration temperature). Form S converts back to Form D after exposure to ambient condition for 3 h.
# In order to investigate potential form change of Form A upon heating, variable temperature XRPD technique was applied. XRPD patterns of the sample were measured online with a temperature cycle of 25° C. (initial)-50° C./N2 protection-70° C./N2 protection-250° C./N2 protection-25° C./N2 protection-25° C./ambient condition (3h). […] Form A converts to Form U when temperature is 250° C., and Form U converts to Form T after cooling to 25° C.
# [3] = Grinding simulation experiments - dry grinding; conditions: for tolerance to dry grinding: ground manually with mortar and pestle, 5 min or 1 min, XRPD
# Procedure: About 20 mg of Form A, Form D, and Form T were ground manually with a mortar and a pestle for 5 min or 1 min. Potential from transition and degree of crystallinity were evaluated by XRPD.
# [4] = Grinding simulation experiments - wet grinding (granulation)
# Procedure: Water or ethanol was added drop wise to about 20 mg of Form A, Form D, or Form T until solid was wetted sufficiently. Vortex was applied between each addition. Samples were dried under ambient condition for 10 min. Potential form transition and degree of crystallinity were evaluated by XRPD.
# [5] = Bulk stability of crystalline forms; conditions: for Purity, Bulk (HPLC): Solid state; for Initial purity: before stress, HPLC; for chemical stability and physical stability (bulk stability): stressed under 25° C./92 RH, 40% C/75% RH and 60° C., XRPD and HPLC
# Excerpt: (§1) Solids obtained after bulk stability study were characterized by XRPD and HPLC.
# [6] = Equilibrium solubility in FeSSIF and FaSSIF; conditions: 24 hours; for Solubility: target concentration 1 mg/mL, HPLC method 1 or 2 (footnote); for impurity in solubility sample: no unit printed for impurity (column head mg/mL)
# Procedure: Solid part and liquid part were separated by filtration. Solubility was measured by HPLC. Solid part (wet cake) was investigated by XRPD.
# [7] = Variable humidity and temperature XRPD experiments; remark: listed apart in the source
# [8] = Bulk stability of crystalline forms; set-up: key: Color A: All No change of color; conditions: Solid state
# Excerpt: as §1
# [9] = Intrinsic dissolution rate (IDR) evaluation in FaSSIF; conditions: FaSSIF at 37° C.
# Procedure: Only one surface of the pellet was exposed (surface area=0.50 cm^2) to 900 mL FaSSIF, the dissolution medium. Temperature of chamber medium was set as 37±0.5° C. Shaft rotation as 100 rpm and sampling time points as 2 min, 5 min, 10 min, 15 min, 20 min, 25 min, 30 min, 35 min, 40 min, 50 min, 60 min, and 120 min. 2 mL sample solution was withdrawn at each time point and centrifuged at 14,000 rpm for 5 min to isolate supernatant. Then concentration of the supernatant was analyzed by HPLC. After 120 min, XRPD of disc surface was measured.
# [10] = 25° C./92% RH, open container, 1 week
# [11] = 25° C./92% RH, open container, 2 weeks
# [12] = 40° C./75% RH, open container, 1 week
# [13] = 40° C./75% RH, open container, 2 weeks
# [14] = 60° C., tight container, 1 week
# [15] = 60° C., tight container, 2 weeks
# [16] = 25° C./92% RH, open container, 4 weeks
# [17] = 40° C./75% RH, open container, 4 weeks
# [18] = 60° C., tight container, 4 weeks
smiles,measurement,setting,value
"Nc1nc(=O)n(-c2ccccc2Cl)c2nc(C(F)(F)F)ccc12 [Form D, 4-Amino-1-(2-chlorophenyl)-7-(trifluoromethyl)pyrido[2,3-d]pyrimidin-2(1H)-one]",humidity at which water is absorbed again / water content restored (conversion back to the hydrate),"[1]; DVS and variable humidity XRPD, 25° C.",higher than 20 % RH
same,hygroscopicity,[1],slightly hygroscopic
same,water uptake,"[1]; DVS, from 40% to 95% RH, 25° C.",about 0.9%
same,form change after the DVS test,[1],No form change
same,XRPD (XRPD method 2),[2]; VT13 25° C./55% RH (final),Form D
same,temperature above which the form starts to lose water,[2]; based on DSC results,higher than 46 °C
same,dehydration product (form obtained on loss of water),[2]; low humidity or heating above the dehydration temperature,Form S
same,XRPD after dry grinding,[3]; Dry grinding for 1 min,substantially amorphous
same,XRPD after dry grinding,[3]; Dry grinding for 5 min,substantially amorphous
same,tolerance to dry grinding,[3],poor tolerance
same,XRPD after wet grinding,[4]; Ethanol,substantially amorphous
same,XRPD after wet grinding,[4]; Water,No form change
same,form change after granulation with water,"[4]; wet grinding, XRPD",no form change
same,tolerance to granulation with ethanol or water,"[4]; wet grinding, XRPD",poor tolerance
same,tolerance to granulation with water,"[4]; wet grinding, XRPD",good tolerance
same,"Purity, Bulk (HPLC)",[5]; [10],98.0%
same,"Purity, Bulk (HPLC)",[5]; [11],98.0%
same,"Purity, Bulk (HPLC)",[5]; [12],98.1%
same,"Purity, Bulk (HPLC)",[5]; [13],98.2%
same,"Purity, Bulk (HPLC)",[5]; [14],98.1%
same,"Purity, Bulk (HPLC)",[5]; [15],97.8%
same,Initial purity,[5],98.0%
same,chemical stability and physical stability (bulk stability),[5],good chemical stability and physical stability
same,XRPD of solid after solubility test,"[6]; FaSSIF, pH 6.5, 37° C.",Form D
same,final pH,"[6]; FaSSIF, pH 6.5, 37° C.",6.6
same,Solubility,"[6]; FaSSIF, pH 6.5, 37° C.",90 µg/mL
same,impurity in solubility sample,"[6]; FaSSIF, pH 6.5, 37° C.",no impurity
same,XRPD of solid after solubility test,"[6]; FeSSIF, pH 5.0, 37° C.",Form D
same,final pH,"[6]; FeSSIF, pH 5.0, 37° C.",5.2
same,Solubility,"[6]; FeSSIF, pH 5.0, 37° C.",210 µg/mL
same,impurity in solubility sample,"[6]; FeSSIF, pH 5.0, 37° C.",no impurity
same,XRPD (XRPD method 2),[7]; VRH1 21° C./50% RH (initial),Form D
same,XRPD (XRPD method 2),[7]; VRH2 21° C./90% RH (3 h),Form D
same,XRPD (XRPD method 2),[7]; VRH3 21° C./60% RH (2 h),Form D
same,XRPD (XRPD method 2),[7]; VRH4 21° C./40% RH (2 h),Form D
same,XRPD (XRPD method 2),"[7]; VRH5 21° C./20% RH (3 h), desorption",Form D
same,XRPD (XRPD method 2),"[7]; VRH6 21° C./10% RH (3 h), desorption",Form S
same,XRPD (XRPD method 2),[7]; VRH7 21° C./0% RH (6 h),Form S
same,XRPD (XRPD method 2),"[7]; VRH8 21° C./10% RH (3 h), after 0% RH",Form S
same,XRPD (XRPD method 2),"[7]; VRH9 21° C./20% RH (3 h), after 0% RH",Form S
same,XRPD (XRPD method 2),[7]; VRH10 21° C./50% RH (final),Form D
same,XRPD (XRPD method 2),[7]; VT9 25° C./55% RH (initial),Form D
same,XRPD (XRPD method 2),[7]; VT10 130° C./55% RH (10 min),Form S
same,XRPD (XRPD method 2),[7]; VT11 25° C./N2 protection (10 min),Form S
same,XRPD (XRPD method 2),[7]; VT12 25° C./55% RH (3 h),Form D
same,Color,[8]; [10],A
same,Color,[8]; [11],A
same,Color,[8]; [12],A
same,Color,[8]; [13],A
same,Color,[8]; [14],A
same,Color,[8]; [15],A
"Nc1nc(=O)n(-c2ccccc2Cl)c2nc(C(F)(F)F)ccc12 [Form T, 4-Amino-1-(2-chlorophenyl)-7-(trifluoromethyl)pyrido[2,3-d]pyrimidin-2(1H)-one]",hygroscopicity,[1],slightly hygroscopic
same,form change after the DVS test,[1],No form change
same,XRPD after dry grinding,[3]; Dry grinding for 5 min,substantially amorphous
same,tolerance to dry grinding,[3],poor tolerance
same,XRPD after wet grinding,[4]; Water,No form change
same,form change after granulation with water,"[4]; wet grinding, XRPD",no form change
same,tolerance to granulation with water,"[4]; wet grinding, XRPD",good tolerance
same,"Purity, Bulk (HPLC)",[5]; [10],99.1%
same,"Purity, Bulk (HPLC)",[5]; [11],99.0%
same,"Purity, Bulk (HPLC)",[5]; [16],98.9%
same,"Purity, Bulk (HPLC)",[5]; [12],98.9%
same,"Purity, Bulk (HPLC)",[5]; [13],98.7%
same,"Purity, Bulk (HPLC)",[5]; [17],98.3%
same,"Purity, Bulk (HPLC)",[5]; [14],99.1%
same,"Purity, Bulk (HPLC)",[5]; [15],99.0%
same,"Purity, Bulk (HPLC)",[5]; [18],98.7%
same,Initial purity,[5],99.1%
same,chemical stability and physical stability (bulk stability),[5],good chemical stability and physical stability
same,XRPD of solid after solubility test,"[6]; FaSSIF, pH 6.5, 37° C.",Form T
same,final pH,"[6]; FaSSIF, pH 6.5, 37° C.",6.5
same,Solubility,"[6]; FaSSIF, pH 6.5, 37° C.",80 µg/mL
same,XRPD of solid after solubility test,"[6]; FeSSIF, pH 5.0, 37° C.",Form T
same,final pH,"[6]; FeSSIF, pH 5.0, 37° C.",5.0
same,Solubility,"[6]; FeSSIF, pH 5.0, 37° C.",160 µg/mL
same,XRPD after IDR,[9]; disc surface after 120 min,No form change
same,Concentration detected during IDR test (Comments),"[9]; for Form V and Form A remains same during the whole process, LOQ for Form T and amorphous form",<LOQ (0.0003 mg/mL
same,Color,[8]; [10],A
same,Color,[8]; [11],A
same,Color,[8]; [16],A
same,Color,[8]; [12],A
same,Color,[8]; [13],A
same,Color,[8]; [17],A
same,Color,[8]; [14],A
same,Color,[8]; [15],A
same,Color,[8]; [18],A
